# Assay results reported in US11746098B2, “Proteasome activity enhancing compounds” (Proteostasis Therapeutics, Inc., priority 2018, dated 2023).
# Target: USP14 (Homo sapiens, UniProt P54578)
# Test: USP14 Inhibition Assay
# Format: biochemical
# Conditions: average value from a minimum of two experimental determinations, read-out: IC50 Category
# From the text: The activity of the compound described herein to inhibit USP14 can be measured using previously described methodology [B. H. Lee et al. Nature 2010, 467 (9), 179, the contents of which are expressly incorporated by reference herein].
# Example 6: USP14 Inhibition Assay
row,SMILES,IC50 [µM]
1,"CC(=O)c1c(CN2CCCCC2)c(C)n(-c2ccc(C#N)cc2)c1C [Compound 117, 4-(3-Acetyl-2,5-dimethyl-4-(piperidin-1-ylmethyl)-1H-pyrrol-1-yl)benzonitrile]",> 5
2,"Cc1cc(C(=O)CN2CCCC2)c(C)n1-c1cc(Cl)cc(Cl)c1 [Compound 16, 1-(1-(3,5-Dichlorophenyl)-2,5-dimethyl-1H-pyrrol-3-yl)-2-(pyrrolidin-1-yl)ethanone]",> 5
3,"Cc1ccc(C(=O)CN2CCCCC2)n1-c1ccc(Cl)cc1 [Compound 33, 1-(1-(4-Chlorophenyl)-5-methyl-1H-pyrrol-2-yl)-2-(piperidin-1-yl)ethanone]",> 5
4,"Cc1cc(C(=O)CN2CCCC2)c(C)n1-c1ccc(OC(F)(F)F)cc1 [Compound 61, 1-(2,5-Dimethyl-1-(4-(trifluoromethoxy)phenyl)-1H-pyrrol-3-yl)-2-(pyrrolidin-1-yl)ethanone]",0.5 to 5
5,"Cc1cc(C(=O)CN2CCC(OCC(=O)NC3CC3)CC2)c(C)n1-c1ccc(F)cc1 [Compound 75, N-Cyclopropyl-2-((1-(2-(1-(4-fluorophenyl)-2,5-dimethyl-1H-pyrrol-3-yl)-2-oxoethyl)piperidin-4-yl)oxy)acetamide]",0.5 to 5
6,"Cc1cc(C(=O)CN2CCC(O)CC2)c(C)n1-c1ccc(O)cc1 [Compound 20, 1-(1-(4-Hydroxyphenyl)-2,5-dimethyl-1H-pyrrol-3-yl)-2-(4-hydroxypiperidin-1-yl)ethanone]",> 5
7,"Cc1c(C(=O)CN2CCC(O)CC2)cn(C)c1-c1ccc(Cl)cc1 [Compound 94, 1-(5-(4-Chlorophenyl)-1,4-dimethyl-1H-pyrrol-3-yl)-2-(4-hydroxypiperidin-1-yl)ethanone]",< 0.5

# The next lines start with the values.
row,IC50 [µM],SMILES
1,0.5 to 5,"Cc1cc(C(=O)CN2CC[C@H](O)C2)c(C)n1-c1ccc(Cl)cc1 [Compound 52, (S)-1-(1-(4-Chlorophenyl)-2,5-dimethyl-1H-pyrrol-3-yl)-2-(3-hydroxypyrrolidin-1-yl)ethanone]"
2,< 0.5,"CCCNC(=O)COC1CCN(CC(=O)c2cc(C)n(-c3ccc(Cl)cc3)c2C)CC1 [Compound 83, 2-((1-(2-(1-(4-Chlorophenyl)-2,5-dimethyl-1H-pyrrol-3-yl)-2-oxoethyl)piperidin-4-yl)oxy)-N-propylacetamide]"
3,0.5 to 5,"Cc1cc(C(=O)CC2CCCCN2)c(C)n1-c1ccc(Cl)cc1 (stereo not shown) [Compound 71, 1-(1-(4-Chlorophenyl)-2,5-dimethyl-1H-pyrrol-3-yl)-2-(piperidin-2-yl)ethanone]"
